Experimental findings from patent US20040024317A1, “Method for assessing capillary permeability” (priority 2002, published 2004) are described below.

The nature of this data set: Persistence length by light scattering. The format is physicochemical. The conditions noted are these: little or no substitution; folded polypeptide. The text has this: An elongated, worm-like conformation of a macromolecule results in greater uptake than other conformations, such as folded, or globular conformations. Conformation may be measured by a persistence length of the molecule. This may be determined by light scattering.
The conformation attained by the present polymeric contrast agents is that of a worm-like shape being essentially a stretched out, extended chain with little folding. A measure of the “straightness” of a molecule is a persistence length. Persistence length is related to a radius of gyration, measured by light scattering experiments. A folded polypeptide such as poly-L-lysine (PLL) with little or no substitution, has a low persistence length of about 10 Angstroms (Å), and is not suitable for diagnosing sepsis. Therefore, the present polymeric contrast agents preferably have a persistence lengths of 100-600 Å.

For the substance poly-L-lysine [poly-L-lysine (PLL)], the persistence length result is on record as “about 10 Angstroms (Å)”.
